Experimental data: US7901906B2, “Targeting of MKRN1 for identifying cancer treatment agents” (University of Central Florida Research Foundation, Inc., priority 2006, dated 2011)

Experiments:
hTERT [1] = assay: hTERT protein levels by immunoblotting in H1299 cells; type: cell-based, human
Description: FIG. 1. hTERT is sensitive to the Hsp90 antagonist geldanamycin. (A) Down-regulation of ectopically expressed hTERT by GA. H1299 cells transfected with Flag-hTERT or Flag-TRF1 were treated with 0.1 μM GA for the indicated times. Lysates were resolved on 8% SDS-PAGE and analyzed by immunoblotting using an anti-Flag antibody probe. Cells were pretreated with 10 μM MG132 or E-64 for 2 hours, either alone or before treatment with GA. (B) Concentration dependence of GA on hTERT. H1299 cells transfected with Flag-hTERT or hTERT-HA were treated for 2 hours with the GA concentration indicated. The hTERT polypeptides were visualized with anti-Flag or anti-HA antibodies as marked by each blot. (C) Down-regulation of endogenous hTERT by GA. H1299 cells were treated with 0.1 μM GA for the indicated times, and cell lysates were analyzed by immunoprecipitation with anti-hTERT antibody followed by immunoblotting using same antibody probe. Cells were pretreated with 10 μM MG132 for 2 hours, either alone or before treatment with GA. Molecular weight markers are shown in kilodaltons. (D) H1299 cells were treated with 0.1 μM GA for the indicated times, and cell lysates were analyzed for telomerase activity by the TRAP assay. The lane labeled LB corresponds to the negative control (lysis buffer only). ITAS represents the internal telomerase assay standard. (E) Saos-2 cells transfected with Flag-hTERT or hTERT-HA or empty vector were untreated or treated with 0.1 μM GA for 16 hours, and cell lysates were analyzed for telomerase activity using the TRAP assay.
(§1) FIG. 2. hTERT is ubiquitinated prior to proteasome-mediated degradation. (A) H1299 cells were co-transfected with Flag-hTERT and HA-ubiquitin. Cells were either untreated or treated for 2 hours with 10 μg/ml ALLnN or 0.1 μM GA, or a combination of the two as specified above each lane. Immunoprecipitation was performed with anti-Flag antibody before probing with anti-hTERT or anti-HA antibodies as indicated besides each blot. Molecular weight markers are shown in kilodaltons. (B) H1299 cells co-transfected with Flag-hTERT and HA-ubiquitin were treated for 1 hour with the GA concentration indicated in the presence of 10 μM MG132. Immunoprecipitation was performed with anti-Flag antibody followed by immunoblotting using an anti-HA antibody probe. (C) H1299 cells co-transfected with Flag-hTERT and HA-ubiquitin were either untreated or treated for 2 hours with 10 μg/ml ALLnN as specified above each lane. Proteins were immunoprecipated with anti-Flag antibody followed by immunoblotting using an anti-HA antibody probe.
The human lung carcinoma cell line H1299 was cultured in RPMI-1640 medium, and the human fibrosarcoma cell line HT1080 was cultured in Dulbecco's modified Eagle's medium supplemented with 10% fetal bovine serum, 100 units/ml penicillin, and 100 μg/ml streptomycin in 5% CO2 at 37° C. The human osteosarcoma cell line Saos-2 was maintained in McCoy's 5A medium containing 15% fetal bovine serum, 100 units/ml penicillin, and 100 μg/ml streptomycin. To establish cell lines stably expressing MKRN1, the MKRN1-V5 construct was transfected into HT1080 cells using Lipofectamine Plus (Invitrogen, Carlsbad, Calif.) according to the manufacturer's instructions. As a control, HT1080 cells were also stably transfected with an empty vector. Multiple independent single clones were isolated and checked for protein expression by immunoblotting with anti-V5 antibody.
H1299 cells were transiently transfected with the expression vectors indicated in the figure legends using TransFast transfection reagent (Promega, Madison, Wis.) according to the manufacturer's instructions. Cells were lysed with buffer containing 0.5% NP-40, 50 mM Tris-HCl (pH 7.5), 150 mM NaCl, 2 mM phenyl methylsulphonyl fluoride. […]

hTERT [2] = assay: Ubiquitination of hTERT in H1299 cells (immunoprecipitation, anti-HA immunoblot); type: cell-based, human; details: H1299 Flag-hTERT and HA-ubiquitin, MG132
Description: as §1
(§2) FIG. 4. MKRN1 functions as an E3 ubiquitin-ligase for hTERT in vitro and in vivo. (A) HA-tagged hTERT (residues 946-1132) was incubated MKRN1 or mutants in the presence of E1, E2, His6-ubiquitin (6×His tag disclosed as SEQ ID NO: 7). Samples were resolved by 6% SDS-PAGE and analyzed by immunoblotting with an anti-HA antibody probe. (B) H1299 cells were co-transfected with Flag-hTERT, HA-ubiquitin, MKRN1-V5, and together with either MKRN1^H307E-V5 or MKRN1^Δ^C-V5 as specified. Cells were untreated or treated with 10 μM MG132 for 2 hours. Anti-Flag immunoprecipitates and cell lysates were analyzed by immunoblotting with anti-HA antibody and anti-V5 antibody probes, respectively. (C) H1299 cells co-transfected with Flag-hTERT and HA-ubiquitin, and together with or without MKRN1-V5 as indicated were treated with 10 μM MG132 for the indicated times. Anti-Flag immunoprecipitates and cell lysates were analyzed by immunoblotting with anti-HA antibody and anti-V5 antibody probes, respectively.
H1299 cells were transiently transfected with the expression vectors indicated in the figure legends using TransFast transfection reagent (Promega, Madison, Wis.) according to the manufacturer's instructions. Cells were lysed with buffer containing 0.5% NP-40, 50 mM Tris-HCl (pH 7.5), 150 mM NaCl, 2 mM phenyl methylsulphonyl fluoride. After centrifugation at 12,000 rpm for 30 min, the supernatants were immunoprecipitated for 2 hours with anti-Flag (Sigma, St. Louis, Mo.) or anti-HA (Santa Cruz biotechnology, Santa Cruz, Calif.) antibodies and then incubated with Sepharose beads conjugated to Protein G (Amersham Biosciences Inc., Piscataway, N.J.). When ubiquitin conjugates of hTERT were detected, immunoprecipitation was performed with lysis buffer containing 0.1% SDS to dissociate its interacting proteins. Immunoblot analyses were performed using anti-hTERT (Santa Cruz biotechnology, Santa Cruz, Calif.), anti-V5 (Invitrogen, Carlsbad, Calif.), anti-HA, and anti-Flag antibodies.
GA-mediated protein degradation by the proteasome depends on conjugation of ubiquitin to the Hsp90 client protein (Isaacs et al. 2002; Citri et al. 2002). To determine whether hTERT is ubiquitinated in vivo prior to its degradation, H1299 cells co-transfected with Flag-tagged hTERT and HA-tagged ubiquitin constructs were treated with GA, ALLnN (a general proteasome inhibitor) or both. The immunoprecipitated products were evaluated by immunoblotting with selected probes as described in FIG. 2. […]

[3] = tested on: hTERT (residues 946-1132); assay: In vitro ubiquitination assay; type: biochemical, human; details: purified components, E1, E2, His6-ubiquitin, 30° C., 60 min
Description: as §2
GST-hTERT-HA expressed in bacteria was used as substrate for in vitro ubiquitination assay (Park et al. 2004). The ubiquitination reactions were carried out in buffer (50 mM Tris-HCl, pH 7.5, 2 mM ATP, 2.5 mM MgCl2, 5 mM dithiothreitol, and 0.05% NP-40) containing yeast E1 (0.05 μg), E2 (0.2 μg), and His6-ubiquitin (0.8 μg) (6×His disclosed as SEQ ID NO: 7) in a final volume of 30 μl. […]

Q: For `CC(C)C[C@H](NC(=O)[C@H]1O[C@@H]1C(=O)O)C(=O)NCCCCN=C(N)N` [E-64], which “effect on GA-induced down-regulation of hTERT” value (hTERT [1]; H1299 Flag-hTERT, 10 μM pretreatment 2 hours, then GA 4 hours) is on record?
A: had no effect

Q: What about the “hTERT expression levels, inhibitor alone” value (hTERT [1]; H1299 Flag-hTERT, 10 μM, absence of GA, relative to untreated controls) of the same molecule?
A: did not cause a significant change

Q: How did the hTERT protein eliminated (hTERT [1]; H1299 transfected with Flag-hTERT, 0.1 μM GA, within 2 hours) turn out when `COC1=C2C[C@@H](C)C[C@H](OC)[C@H](O)[C@@H](C)/C=C(\C)[C@H](OC(N)=O)[C@@H](OC)/C=C\C=C(/C)C(=O)NC(=CC1=O)C2=O` [GA, geldanamycin] was run?
A: over 50%

B1: MKRN1^H307E: MKRN1 mutant with mutated histidine residue in the RING finger domain (protein)
chain: MAEAATPGTTATTSGAGAAAATAAAASPTPIPTVTAPSLGAGGGGGGSDGSGGGWTKQVTCRYFMHGVCKEGDNCRYSHDLSDSPYSVVCKYFQRGYCIYGDRCRYEHSKPLKQEEATATELTTKSSLAASSSLSSIVGPLVEMNTGEAESRNSNFATVGAGSEDWVNAIEFVPGQPYCGRTAPSCTEAPLQGSVTKEESEKEQTAVETKKQLCPYAAVGECRYGENCVYLHGDSCDMCGLQLLHPMDAAQRSQHIKSCIEAHEKDMELSFAVQRSKDMVCGICMEVVYEKANPSERRFGILSNCNETYCLKCIRKWRSAKQFESKIIKSCPECRITSNFVIPSEYWVEEKEEKQKLILKYKEAMSNKACRYFDEGRGSCPFGGNCFYKHAYPDAGREEPQRQKVGTSSRYRAQRRNHFWELIEERENSNPFDNDEEEVVTFELGEMLLMLLAAGGDDELTDSEDEWDLFHDELEDFYDLDL
modifications: left off: small tags and cut ends
Q: How did the “amount of ubiquitinated hTERT on co-expression” value (hTERT [2]) turn out when B1 was run?
A: significantly reduced

Q: And the “ubiquitination of C-terminal domain of hTERT” value [3]?
A: not
